Data taken from the NIST ThermoML archive (doi:10.1016/j.jct.2007.03.008).
Numbers after ± are expanded uncertainties.

Experiments:
[1] = Liquid; for mass density: 101.33 kPa
[2] = refractive index (Na D-line) (dimensionless); details: 298.15 K; 101.33 kPa; Liquid; Standard Abbe refractometry

Row | SMILES | mass density ([1]; 298.15 K, Vibrating tube method) [kg/m3] | vapor or sublimation pressure ([1]; 298.15 K) [kPa] | vapor or sublimation pressure ([1]; 308.15 K) [kPa] | vapor or sublimation pressure ([1]; 318.15 K) [kPa] | refractive index [2] | mass density ([1]; 298.15 K) [kg/m3]
1 | CCCCCl [1-chlorobutane] | 880.9 ± 0.1 | 13.7 ± 0.4 | 21.32 ± 0.44 | 31.86 ± 0.51 | 1.3991 ± 0.0007 | –
2 | ClCCCCl [1,3-dichloropropane] | – | 2.75 ± 0.16 | 4.48 ± 0.17 | 6.87 ± 0.18 | 1.4459 ± 0.0007 | 1181.4 ± 0.3
3 | ClCCCCCl [1,4-dichlorobutane] | – | 0.99 ± 0.16 | 1.39 ± 0.16 | 2.13 ± 0.16 | 1.4519 ± 0.0007 | 1132.8 ± 0.2
4 | O=C1CCCC1 [cyclopentanone] | – | 1.71 ± 0.32 | 2.8 ± 0.33 | 4.4 ± 0.34 | 1.4347 ± 0.0007 | 945.3 ± 0.2
